Experiment: xn = mol fraction of the nth substance listed
Conditions: 101 kPa

CO + COP(=O)([O-])OC.Cn1cc[n+](C)c1
x1 = 1
Conditions | viscosity [mPa·s]
293.15 K | 0.586
298.15 K | 0.552
308.15 K | 0.491
313.15 K | 0.465
323.15 K | 0.418

COP(=O)([O-])OC.Cn1cc[n+](C)c1 + CC(C)O
viscosity [mPa·s]
Conditions | x2 = 0 | x2 = 0.0999 | x2 = 0.2032 | x2 = 0.301 | x2 = 0.402 | x2 = 0.5002 | x2 = 0.6 | x2 = 0.7009 | x2 = 0.7997 | x2 = 0.9013
293.15 K | – | – | 254 | 173.1 | – | 67 | 38.35 | 21.3 | 11.44 | 5.77
298.15 K | 291 | 253 | – | 129.9 | 75.3 | – | 31.53 | – | 9.87 | 5
303.15 K | 210 | 184.2 | 136.2 | 99.8 | 61.1 | – | 26.2 | 15.37 | 8.59 | 4.361
308.15 K | 155.6 | 138.2 | 105 | 78.4 | 49.7 | 35.62 | 22.05 | – | 7.54 | –
313.15 K | – | – | – | – | 40.99 | 29.78 | 18.74 | 11.54 | 6.64 | 3.359
318.15 K | 92.8 | 82.8 | – | 51.5 | 33.95 | – | 16.13 | – | 5.89 | 2.969
323.15 K | 74.2 | 66.4 | 54 | 42.88 | 28.66 | – | 14.03 | 8.94 | 5.25 | –

COP(=O)([O-])OC.Cn1cc[n+](C)c1 + CCCO
viscosity [mPa·s]
Conditions | x2 = 0 | x2 = 0.098 | x2 = 0.1993 | x2 = 0.3018 | x2 = 0.4 | x2 = 0.5002 | x2 = 0.5996 | x2 = 0.6995 | x2 = 0.799 | x2 = 0.8998
293.15 K | 416 | 296 | 211 | – | 85.2 | 50.8 | 29.52 | 17.53 | 9.79 | 4.441
298.15 K | – | 215 | 154.1 | 93 | 66.9 | 41.59 | 25.38 | 15.17 | 8.63 | 3.929
303.15 K | 210 | 159 | – | 74.1 | 53.6 | – | – | 13.16 | 7.61 | 3.492
308.15 K | 155.6 | 121.1 | – | 59.5 | 43.67 | 28.52 | 18.35 | 11.51 | 6.76 | 3.118
313.15 K | 119.2 | 93.9 | 71.2 | 48.5 | 36.1 | 24.02 | – | 10.13 | 6.04 | 2.795
318.15 K | 92.8 | – | 57.8 | 39.92 | – | – | 13.79 | 8.97 | 5.42 | 2.516
323.15 K | 74.2 | 60.9 | 47.8 | – | 25.67 | 17.68 | – | 8 | – | 2.273

CCO + COP(=O)([O-])OC.Cn1cc[n+](C)c1
x1 = 1
Conditions | viscosity [mPa·s]
293.15 K | 1.192
298.15 K | 1.085
303.15 K | 0.99
308.15 K | 0.906
313.15 K | 0.831
318.15 K | 0.764
323.15 K | 0.704
